# Assay results: patent publication US8193235B2, “Compositions and methods for establishing and maintaining stem cells in an undifferentiated state” (University of Kansas, priority 2009, dated 2012)
# Tests used:
# GSK-3α or GSK-3β = experiment: GSK3 phosphorylation in mESCs; assay type: cell-based, mouse
# Description: (§1) E14 ES Cell Cultures. Cells were grown in ES-IMDM media (Lonza, Walkersville, Md.) in a feeder-free condition. ES-IMDM was supplemented with 15% serum, 10^5 U/100 ml of LIF (ESGRO, Millipore, Calif.) and 0.0124% monothioglycerol (MTG; Sigma Aldrich). Cells were grown for 3-5 days with change of medium every day. For inducing differentiation in monolayer culture and to determine the effect of Gö6983 in preventing differentiation, E14 cells were cultured on gelatin-coated plastics for 8 days without LIF. Details of experiments performed at clonal-density are described herein. To maintain E14 cells with Gö6983, serum supplemented ES-IMDM was used in the presence of 5 μM Gö6983 and was passed after every 3-5 days. For all assays involving elucidation of different signaling mechanism responsible for maintenance of pluripotency, cells from a ˜70% confluent ES culture plate were washed two times with 1× phosphate-buffered saline (PBS), trypsinized and plated on a 6-well tissue culture plate and treated with or without LIF or Gö6983 or different inhibitors for ˜10 hours followed by preparation of protein lysates and RNA. The PKCζ knocked-down E14 cells that were generated in this study were maintained in serum supplemented ES-IMDM on gelatin-coated plates in the absence of Gö6983 or LIF or any other inhibitor and passed after 3-5 days. […]
# 129/Sv blastocysts = experiment: De novo derivation of new ES cells from blastocysts; assay type: cell-based, mouse
# Description: De Novo Derivation of New ES Cells With Gö6983. Blastocysts from 6-week-old female 12952/SvPasCrl (129/Sv) strain mice (Charles River Laboratory, Wilmington, Mass.) were isolated at 3.5 day post-coitum. Isolated blasotocysts were plated on gelatin-coated plastic in medium containing Gö6983 and FBS and without LIF. To obtain ES cell colonies, blastocyst outgrowths were disaggregated with trypsin and replated on gelatin-coated wells with Gö6983 and FBS. ES cell colonies were expanded by replating with Gö6983 at clonal or higher density. For in vitro analysis, cells were differentiated following the same protocol described herein. After six passages with Gö6983-condition, chromosome numbers were checked by karyotyping, and injected in C57BL/6 blastocysts for chimera generation.
# Eed−/− ES cells = Eed−/− ES cells on collagen IV without LIF
# Description: Eed^−/− ES Cells. Eed^−/− ES cells, passage 4, were maintained in same medium as mentioned for Ezh2^−/− cells but supplemented with extra LIF (2000 U/ml) to suppress spontaneous differentiation.
# [1] = system: canonical Wnt reporter (TOPFLASH reporter); experiment: TOPFLASH luciferase reporter assay; assay type: cell-based, mouse; settings: mESCs
# Description: TOPFLASH Luciferase Reporter Assay. […] were transfected with 0.5 μg of SUPER8XTOPFlash and 20 ng of phRL Renilla luciferase vectors per well using LIPOFECTAMINE (Invitrogen). Transfected cells were cultured with or without LIF, or Wnt3a-conditioned medium, or with Gö6983, and luciferase activity was measured after 48 hours of transfection using Dual-Luciferase Reporter Assay System (Promega).
# E14 ES cells [2] = experiment: Cell Proliferation Assay; assay type: cell-based; settings: Mus musculus
# Description: Cell Proliferation Assay. E14 ES cells were seeded and incubated for 2 days in the presence of different concentrations of Gö6983. Cell proliferation was measured with […] 96 AQUEOUS One Solution Reagent (Promega, Madison, Wis.) following the manufacturer's protocol.
# STAT3 = STAT3 phosphorylation, Western blot; assay type: cell-based, mouse; settings: E14 cells
# Description: as §1
# E14 ES cells [3] = experiment: ES cell culture in the absence of LIF (undifferentiated state, marker expression); assay type: cell-based, mouse
# Description: E14 ES Cell Cultures. Cells were grown in ES-IMDM media (Lonza, Walkersville, Md.) in a feeder-free condition. ES-IMDM was supplemented with 15% serum, 10^5 U/100 ml of LIF (ESGRO, Millipore, Calif.) and 0.0124% monothioglycerol (MTG; Sigma Aldrich). Cells were grown for 3-5 days with change of medium every day. For inducing differentiation in monolayer culture and to determine the effect of Gö6983 in preventing differentiation, E14 cells were cultured on gelatin-coated plastics for 8 days without LIF. Details of experiments performed at clonal-density are described herein. To maintain E14 cells with Gö6983, serum supplemented ES-IMDM was used in the presence of 5 μM Gö6983 and was passed after every 3-5 days. For all assays involving elucidation of different signaling mechanism responsible for maintenance of pluripotency, cells from a ˜70% confluent ES culture plate were washed two times with 1× phosphate-buffered saline (PBS), trypsinized and plated on a 6-well tissue culture plate and treated with or without LIF or Gö6983 or different inhibitors for ˜10 hours followed by preparation of protein lysates and RNA. The PKCζ knocked-down E14 cells that were generated in this study were maintained in serum supplemented ES-IMDM on gelatin-coated plates in the absence of Gö6983 or LIF or any other inhibitor and passed after 3-5 days. For the experiments herein, cells were continuously cultured at least for 5 consecutive passages (>18 days) on gelatin-coated plates without significant differentiation.
# Quantitative RT-PCR Analysis. RNA was extracted from different cell samples with TRIZOL reagent (Invitrogen). cDNA was prepared by annealing RNA (1 μg) with 250 ng of a 5:1 mixture of random and oligo(dT) primers heated at 68° C. for 10 minutes. This was followed by incubation with Moloney murine leukemia virus reverse transcriptase (50 units) (Invitrogen, Carlsbad, Calif.) combined with 10 mM DTT, RNasin (PROMEGA, Madison, Wis.), and 0.5 mM dNTPs at 42° C. for 1 hour. Reactions were diluted to a final volume of 100 μl and heat inactivated at 97° C. for 5 minutes. Twenty μl PCR reactions contained 2 μl cDNA, 10 μl SYBR Green Master Mix (Applied Biosystems, Foster City, Calif.) and corresponding primer sets. Relative expression levels were determined from a standard curve of serial dilutions of proliferating ES cell cDNA samples and were normalized to the expression of glyceraldehyde-3-phosphate dehydrogenase (GAPDH). At least three independent experiments were done for each set of data.
# Immunostaining. Immunostaining of Oct4, and Nanog expression was performed using standard protocols. Briefly, ES cells were fixed in 4% paraformaldehyde/4% sucrose, permeabilized with 0.1% TRITON X 100 (Sigma). Cells were blocked by adding 1% fish gelatin (Sigma, St. Louis, Mo.) and incubated overnight at 4° C. with 200 μl of primary antibodies. Fluorescent-conjugated secondary antibodies (ALEXA FLUOR 488, and ALEXA FLUOR 568, Molecular Probes, Invitrogen) were used at 1:250 dilutions to visualize cells. Images were captured using a LEICA fluorescence microscope.
smiles,measurement,setting,value
"COc1ccc2c(c1)c(C1=C(c3c[nH]c4ccccc34)C(=O)NC1=O)cn2CCCN(C)C [Gö6983, 3-[1-[3-(dimethylamino)propyl]5-methoxy-1H-indol-3-yl]-4-(1H-indol-3-yl)-1H-pyrrole-2,5-dione]",phosphorylation of GSK-3α or GSK-3β,GSK-3α or GSK-3β,did not significantly change
same,propagation of Gö6983-derived ES cell lines at clonal density,129/Sv blastocysts; cultured with Gö6983,successfully propagated in an undifferentiated state
same,multilineage differentiation potential of established ES cell lines,"129/Sv blastocysts; embryoid bodies, differentiated on collagen IV",readily formed embryoid bodies and expressed lineage specific markers
same,derivation of ES cell colonies from blastocyst outgrowths,"129/Sv blastocysts; serum and Gö6983, without LIF and feeder cells, gelatin-coated plates",multiple ES cell colonies were obtained from 10 blastocysts
same,colony morphology and pluripotency markers of Eed−/− cells,Eed−/− ES cells; collagen IV without LIF,largely maintained undifferentiated colony morphology and expression of pluripotency markers
same,expression of developmental regulator genes in Eed−/− cells,Eed−/− ES cells; in the presence of Gö6983,significantly induced
same,TOPFLASH reporter activity,[1],did not induce
same,inhibition at 2.5 µM,E14 ES cells [2],~30%
same,STAT3 phosphorylation,STAT3,did not induce
same,ES cell differentiation at 2.5 μM,"E14 ES cells [3]; 2.5 μM, without LIF",almost completely inhibited
same,concentration that efficiently maintained undifferentiated ES cell colony / inhibits mouse ES cell differentiation,"E14 ES cells [3]; concentration profile analysis, absence of LIF",≥ 2.5 µM
same,ES cell differentiation in the absence of LIF,"E14 ES cells [3]; mouse ES cells, without LIF",did not differentiate and maintained their undifferentiated colony morphology
same,induction of developmental genes required for lineage commitment,"E14 ES cells [3]; quantitative RT-PCR, FIG. 1B",did not occur
same,"expression of pluripotency markers Oct4, Nanog, Sox2 and Rex-1","E14 ES cells [3]; quantitative RT-PCR, without LIF, FIG. 1A",maintained the expression of pluripotency markers
same,ES cell pluripotency in media with different batches of fetal bovine serum,E14 ES cells [3]; serum from different sources,maintained ES cell pluripotency in all culture media irrespective of serum source
